18 molecules from patent US12421211B2, “Heterocyclic compounds” (Hoffmann-La Roche Inc., priority 2021, dated 2025) can be followed below.

Structures can show the parent of a compound that is named as a salt.

The test system of the first test is Acinetobacter baumannii ATCC17961. Briefly: Antimicrobial susceptibility testing: 90% growth inhibitory concentration (IC90) determination. Format: cell-based. The note with it: 90% growth inhibitory concentration, Acinetobacter baumannii ATCC17961, Iso-Sensitest broth, OD 600 nm over 16 h; read-out: ATCC 17961 IC90. Put shortly: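 Growth inhibition derived in log phase from OD600 kinetics (every 20 minutes, 16h, 35±2° C) of ATCC17961 in Iso-Sensitest medium, inoculum ~5×10^5 CFU/ml. Compounds tested as twofold series, 10 points (e.g. 50 to 0.097 μM final); IC90 and IC50 reported.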
For orientation: IC90 means the concentration needed for an effect of 90%. Turning to “cis 2-[1-(azetidin-3-ylmethyl)-4-[4-[2-chloro-4-[[5-[3-fluoro-4-[1-(2-methoxyethyl)-3-methyl-pyrazol-4-yl]phenyl]-1-methyl-imidazole-2-carbonyl]amino]benzoyl]piperazine-1-carbonyl]piperidin-1-ium-1-yl]acetic acid; 2,2,2-trifluoroacetate [Example O7]”, the IC90 is 140 nM.

The test is the same for the next values; noted with them: Acinetobacter baumannii, ATCC17961, 16 h, 90% growth inhibitory concentration, Acinetobacter baumannii ATCC17961, Iso-Sensitest broth, OD 600 nm over 16 h; read-out: ATCC 17961 IC90.
Regarding `Cc1nn(CC(=O)NC(C)C)cc1-c1ccc(-c2cnc(C(=O)Nc3ccc(C(=O)N4CCN(C(=O)C5CC[N+](C)(C)CC5)CC4)c(Cl)c3)n2C)c(F)c1F` [Example G1, N-[3-chloro-4-[4-(1,1-dimethylpiperidin-1-ium-4-carbonyl)piperazine-1-carbonyl]phenyl]-5-[2,3-difluoro-4-[1-[2-(isopropylamino)-2-oxo-ethyl]-3-methyl-pyrazol-4-yl]phenyl]-1-methyl-imidazole-2-carboxamide; formate], the concentration for an effect of 90% (IC90) was determined as 290 nM.
Same read-out and setting: then `Cc1nn(CC(=O)Nc2cnn(C)c2)cc1-c1ccc(-c2cnc(C(=O)Nc3ccc(C(=O)N4CCN(C(=O)C5CC[N+](C)(C)CC5)CC4)c(Cl)c3)n2C)c(F)c1F` [Example G12, N-[3-chloro-4-[4-(1,1-dimethylpiperidin-1-ium-4-carbonyl)piperazine-1-carbonyl]phenyl]-5-[2,3-difluoro-4-[3-methyl-1-[2-[(1-methylpyrazol-4-yl)amino]-2-oxo-ethyl]pyrazol-4-yl]phenyl]-1-methyl-imidazole-2-carboxamide; formate], with 450 nM.
Same read-out and setting: then `COCCn1ncc(-c2ccc(-c3cnc(C(=O)Nc4ccc(C(=O)N5CCC(C(=O)N6CC[N+](CC(N)=O)(CC7CNC7)CC6)CC5)c(Cl)c4)n3C)c(F)c2F)c1C` [Example B24, N-[4-[4-[4-(2-amino-2-oxo-ethyl)-4-(azetidin-3-ylmethyl)piperazin-4-ium-1-carbonyl]piperidine-1-carbonyl]-3-chloro-phenyl]-5-[2,3-difluoro-4-[1-(2-methoxyethyl)-5-methyl-pyrazol-4-yl]phenyl]-1-methyl-imidazole-2-carboxamide; 2,2,2-trifluoroacetate; 2,2,2-trifluoroacetic acid], with 95 nM; and `COCCn1ncc(-c2ccc(-c3cnc(C(=O)Nc4ccc(C(=O)N5CCN(C(=O)C6(OC)CC[N+](C)(C)CC6)CC5)c(Cl)c4)n3C)c(F)c2F)c1C` [Example A13, N-[3-chloro-4-[4-(4-methoxy-1,1-dimethyl-piperidin-1-ium-4-carbonyl)piperazine-1-carbonyl]phenyl]-5-[2,3-difluoro-4-[1-(2-methoxyethyl)-5-methyl-pyrazol-4-yl]phenyl]-1-methyl-imidazole-2-carboxamide; formate], with 110 nM; and `Cc1n[nH]cc1-c1ccc(-c2cnc(C(=O)Nc3ccc(C(=O)N4CCN(C(=O)CCC[N+](CC(=O)O)(CC5CNC5)CC5CNC5)CC4)c(Cl)c3)n2C)c(F)c1F` [Example D42, bis(azetidin-3-ylmethyl)-(carboxymethyl)-[4-[4-[2-chloro-4-[[5-[2,3-difluoro-4-(3-methyl-1H-pyrazol-4-yl)phenyl]-1-methyl-imidazole-2-carbonyl]amino]benzoyl]piperazin-1-yl]-4-oxo-butyl]ammonium; formic acid; formate], with 60 nM.
Consider `COCCn1nc(C)c(-c2ccc(-c3cnc(C(=O)Nc4ccc(C(=O)N5CCN(C(=O)C6CC[N+](C)(C)CC6)CC5)c(Cl)c4)n3C)c(F)n2)c1C` [Example F67, N-[3-chloro-4-[4-(1,1-dimethylpiperidin-1-ium-4-carbonyl)piperazine-1-carbonyl]phenyl]-5-[2-fluoro-6-[1-(2-methoxyethyl)-3,5-dimethyl-pyrazol-4-yl]-3-pyridyl]-1-methyl-imidazole-2-carboxamide; formate], for which the 90% effect concentration (IC90) was found to be 1100 nM.
Still for that read-out and setting: then `COCCn1ncc(-c2ccc(-c3cnc(C(=O)Nc4ccc(C(=O)N5CCN(C(=O)C6CC[N+](CC(=O)O)(CC7CNC7)CC6)CC5)c(Cl)c4)n3C)c(C)c2F)c1C` (stereo not drawn) [Example B39, 2-[1-(azetidin-3-ylmethyl)-4-[4-[2-chloro-4-[[5-[3-fluoro-4-[1-(2-methoxyethyl)-5-methyl-pyrazol-4-yl]-2-methyl-phenyl]-1-methyl-imidazole-2-carbonyl]amino]benzoyl]piperazine-1-carbonyl]piperidin-1-ium-1-yl]acetic acid; formate], with 250 nM; and `COCCn1ncc(-c2ccc(-c3cnc(C(=O)Nc4ccc(C(=O)N[C@H]5[C@@H]6CN(C(=O)N[C@@H]7C[N+](C)(C)C[C@H]7O)C[C@@H]65)c(Cl)c4)n3C)c(F)c2F)c1C` [Example F66, (1S,5R)-6-[[2-chloro-4-[[5-[2,3-difluoro-4-[1-(2-methoxyethyl)-5-methyl-pyrazol-4-yl]phenyl]-1-methyl-imidazole-2-carbonyl]amino]benzoyl]amino]-N-[(3R,4R)-4-hydroxy-1,1-dimethyl-pyrrolidin-1-ium-3-yl]-3-azabicyclo[3.1.0]hexane-3-carboxamide; formate], with 29 nM; and `COCCn1ncc(-c2ccc(-c3cnc(C(=O)Nc4ccc(C(=O)N5CCN(C(=O)C6CCNCC6)CC5)c(Cl)c4)n3C)c(F)c2F)c1C` [Example E11, N-[3-chloro-4-[4-(piperidine-4-carbonyl)piperazine-1-carbonyl]phenyl]-5-[2,3-difluoro-4-[1-(2-methoxyethyl)-5-methyl-pyrazol-4-yl]phenyl]-1-methyl-imidazole-2-carboxamide; 2,2,2-trifluoroacetic acid], with 61 nM.
With `COCCn1ncc(-c2ccc(-c3cnc(C(=O)Nc4ccc(C(=O)N5CCN(C(=O)CN(C)C)CC5)c(C)c4)n3C)cc2)c1C` [Example E14, N-[4-[4-[2-(dimethylamino)acetyl]piperazine-1-carbonyl]-3-methyl-phenyl]-5-[4-[1-(2-methoxyethyl)-5-methyl-pyrazol-4-yl]phenyl]-1-methyl-imidazole-2-carboxamide], the IC90 amounted to 270 nM.
Still for that read-out and setting: the same measure for `Cn1c(-c2ccc(-c3cn[nH]c3C3=CCOCC3)c(F)c2F)cnc1C(=O)Nc1ccc(C(=O)N2CCN(C(=O)C3CC[N+](C)(C)CC3)CC2)c(Cl)c1` [Example I7, N-[3-chloro-4-[4-(1,1-dimethylpiperidin-1-ium-4-carbonyl)piperazine-1-carbonyl]phenyl]-5-[4-[5-(3,6-dihydro-2H-pyran-4-yl)-1H-pyrazol-4-yl]-2,3-difluoro-phenyl]-1-methyl-imidazole-2-carboxamide;formate]: 760 nM; for `Cc1cc(N)cnc1-c1ccc(-c2cnc(C(=O)Nc3ccc(C(=O)N4CCN(C(=O)C5CC[N+](C)(C)CC5)CC4)c(Cl)c3)n2C)c(F)c1F` [Example F64, 5-[4-(5-amino-3-methyl-2-pyridyl)-2,3-difluoro-phenyl]-N-[3-chloro-4-[4-(1,1-dimethylpiperidin-1-ium-4-carbonyl)piperazine-1-carbonyl]phenyl]-1-methyl-imidazole-2-carboxamide; formate]: 250 nM; for `COCCn1ncc(-c2ccc(-c3cnc(C(=O)Nc4ccc(C(=O)N5CCC(CN6CC[N+](C)(C)CC6=O)CC5)c(Cl)c4)n3C)c(F)c2F)c1C` [Example D14, N-[3-chloro-4-[4-[(4,4-dimethyl-2-oxo-piperazin-4-ium-1-yl)methyl]piperidine-1-carbonyl]phenyl]-5-[2,3-difluoro-4-[1-(2-methoxyethyl)-5-methyl-pyrazol-4-yl]phenyl]-1-methyl-imidazole-2-carboxamide; 2,2,2-trifluoroacetate]: 110 nM.
Same read-out and setting: then `Cn1c(-c2ccc(-c3ccc(N)cn3)c(F)c2F)cnc1C(=O)Nc1ccc(C(=O)N2CCN(C(=O)C3CC[N+](C)(C)CC3)CC2)c(Cl)c1` [Example F65, 5-[4-(5-amino-2-pyridyl)-2,3-difluoro-phenyl]-N-[3-chloro-4-[4-(1,1-dimethylpiperidin-1-ium-4-carbonyl)piperazine-1-carbonyl]phenyl]-1-methyl-imidazole-2-carboxamide; formate], with 370 nM; and `COCCn1ncc(-c2ccc(-c3cnc(C(=O)Nc4ccc(C(=O)N5CCN(C(=O)C[C@@H]6CCNC6)CC5)c(Cl)c4)n3C)c(F)c2F)c1C` [Example E2, N-[3-chloro-4-[4-[2-[(3S)-pyrrolidin-3-yl]acetyl]piperazine-1-carbonyl]phenyl]-5-[2,3-difluoro-4-[1-(2-methoxyethyl)-5-methyl-pyrazol-4-yl]phenyl]-1-methyl-imidazole-2-carboxamide; formic acid], with 48 nM.

Staying with this test, now noted: Acinetobacter baumannii, ATCC17961, 16 h, read-out: ATCC 17961 IC90.
Consider `Cc1ccc(NC(=O)Cn2cc(-c3ccc(-c4cnc(C(=O)Nc5ccc(C(=O)N6CCN(C(=O)C7CC[N+](C)(C)CC7)CC6)c(Cl)c5)n4C)c(F)c3F)c(C)n2)nn1` [Example L3, N-[3-chloro-4-[4-(1,1-dimethylpiperidin-1-ium-4-carbonyl)piperazine-1-carbonyl]phenyl]-5-[2,3-difluoro-4-[3-methyl-1-[2-[(6-methylpyridazin-3-yl)amino]-2-oxo-ethyl]pyrazol-4-yl]phenyl]-1-methyl-imidazole-2-carboxamide; formate], for which the IC90 is 264 nM.
Still for that read-out and setting: then `COCCn1cc(-c2ccc(-c3cnc(C(=O)Nc4ccc(C(=O)N5CCN(C(=O)C[N+]6(C)CC[C@H](O)C6)CC5)c(Cl)c4)n3C)c(F)c2F)c(C)n1` (stereo partly drawn) [Example C9, N-[3-chloro-4-[4-[2-[(3S)-3-hydroxy-1-methyl-pyrrolidin-1-ium-1-yl]acetyl]piperazine-1-carbonyl]phenyl]-5-[2,3-difluoro-4-[1-(2-methoxyethyl)-3-methyl-pyrazol-4-yl]phenyl]-1-methyl-imidazole-2-carboxamide; formate], with 260 nM.
